Results: PMC6233196 (Nature Communications, 2018)
pKd, pKi: −log10 of the molar value. “Also recorded” adds a separate entry of the source.

Legend:
[1] = target: GluN1-C744S-C798S/GluN3A-C859S-C913S receptors (Rattus norvegicus, UniProt P35439+Q9R1M7, C744S/C798S/C859S/C913S); conditions: CNQX 50 µM
Description: (§1) Cells were transfected using polyethylenimine with GluN1, GluN3A and GFP plasmids at a 1:3:1 ratio (0.3, 0.9 and 0.3 ng/µl respectively). Recordings were performed 24–48 h following cell transfection. […] EC50, a and nH were set as free parameters.

GluN1/GluN3A receptors [2] = target: T1, GluN1/GluN3A receptors (Rattus norvegicus, UniProt P35439+Q9R1M7); assay: Whole-cell patch-clamp of glycine currents in HEK293 cells expressing wild-type GluN1/GluN3A; conditions: for Effect of reducing treatment on glycine-evoked responses: 20 min, glycine 100 µM; for Peak and steady-state current potentiation compared with CGP-78608: MDL-29951 200 nM, 7-CKA 10 µM, L-689560 1 µM pre-incubated
T1 sequence (Q9R1M7 24-1135, other chains not shown): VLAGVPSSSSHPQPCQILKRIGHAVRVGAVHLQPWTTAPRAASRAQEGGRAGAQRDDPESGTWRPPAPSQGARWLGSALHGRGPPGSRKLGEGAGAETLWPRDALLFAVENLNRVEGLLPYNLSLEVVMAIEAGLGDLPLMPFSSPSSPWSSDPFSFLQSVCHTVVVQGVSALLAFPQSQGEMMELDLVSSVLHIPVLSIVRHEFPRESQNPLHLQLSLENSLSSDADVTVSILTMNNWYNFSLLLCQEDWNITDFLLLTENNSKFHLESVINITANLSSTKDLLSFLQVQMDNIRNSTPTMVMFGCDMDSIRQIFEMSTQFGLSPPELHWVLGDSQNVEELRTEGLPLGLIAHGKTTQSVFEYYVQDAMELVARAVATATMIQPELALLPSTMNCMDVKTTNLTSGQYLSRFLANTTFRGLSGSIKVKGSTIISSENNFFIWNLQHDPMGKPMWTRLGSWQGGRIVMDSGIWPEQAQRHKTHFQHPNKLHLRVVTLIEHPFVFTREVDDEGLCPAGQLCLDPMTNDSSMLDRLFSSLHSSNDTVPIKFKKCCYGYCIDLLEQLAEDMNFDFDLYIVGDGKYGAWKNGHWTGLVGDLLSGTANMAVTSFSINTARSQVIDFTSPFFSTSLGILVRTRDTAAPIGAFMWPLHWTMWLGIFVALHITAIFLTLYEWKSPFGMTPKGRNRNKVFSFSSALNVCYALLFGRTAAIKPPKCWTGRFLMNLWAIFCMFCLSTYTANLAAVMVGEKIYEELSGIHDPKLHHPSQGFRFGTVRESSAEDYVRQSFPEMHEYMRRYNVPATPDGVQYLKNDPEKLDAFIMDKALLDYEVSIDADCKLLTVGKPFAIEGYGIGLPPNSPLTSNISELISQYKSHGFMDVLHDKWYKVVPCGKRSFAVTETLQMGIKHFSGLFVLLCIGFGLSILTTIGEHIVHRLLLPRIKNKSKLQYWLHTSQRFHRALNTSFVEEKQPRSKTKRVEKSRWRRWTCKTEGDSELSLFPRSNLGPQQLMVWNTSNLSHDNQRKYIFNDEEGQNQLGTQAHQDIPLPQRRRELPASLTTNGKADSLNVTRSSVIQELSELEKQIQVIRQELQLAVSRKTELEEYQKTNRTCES
Description: HEK293 cells were used for heterologous expression of recombinant GluN1/GluN3 receptors studied using whole-cell patch-clamp. […] Recordings were performed 24–48 h following cell transfection. The extracellular solution contained (in mM): 140 NaCl, 2.8 KCl, 1 CaCl2, 10 HEPES and 20 Sucrose (290–300 mOsm), pH adjusted to 7.3 using NaOH. […] Drugs and agonists were applied using a multi-barrel solution exchanger (RSC 200; Bio-logic). Recordings were performed at −60 mV and at room temperature. […] EC50, a and nH were set as free parameters.

GluN1/GluN3A receptors [3] = target: T1, GluN1/GluN3A receptors; assay: Two-electrode voltage-clamp in Xenopus oocytes expressing wild-type GluN1/GluN3A; format: cell-based; design: while we record from intact (i.e. full length) membrane-imbedded receptors; expressed in transfected cells; host or cells: HEK293 cells; conditions: TCEP 5 mM, 20 min; glycine 100 µM
Description: Oocytes from Xenopus lævis (Xenopus Express, Rennes, France) were used for heterologous expression of recombinant GluN1/GluN3A receptors studied using two-electrode voltage-clamp (TEVC). TEVC recordings were performed 3–4 days following injection. […] Each oocyte was co-injected with a mixture of GluN1 and GluN3A cDNA at a concentration of 50 ng/µl and at a 1:1 ratio. The standard external solution contained (in mM): 100 NaCl, 2.5 KCl, 0.3 BaCl2, 5 HEPES, 0.01 DTPA (diethylenetriamine-pentaacetic acid), pH 7.3. […]
EC50, a and nH were set as free parameters.

HEK cells = assay: Tolerability of reducing agent when patching HEK cells
Description: In the current work, TCEP was used on HEK cells and DTE on Xenopus oocytes.
When patching HEK cells, however, we observed that
Accordingly, we switched to TCEP,
DTE and TCEP, while both powerful to break disulfide
bonds, differ in their membrane permeability (DTE can cross membranes but not TCEP).

GluN1 ABD = target: GluN1 ABD; design: method as in PMID 16641235; conditions: cited from earlier work; for pKi: isolated domains
GluN1 (native receptors) = conditions: read-out: Ki for GluN1; cited from earlier work
[4] = target: T2, GluN1/GluN3A receptors in CA1 pyramidal cells (Mus musculus, UniProt A2AIR5+P35438); assay: Glycine puffs onto voltage-clamped CA1 pyramidal cells, hippocampal slices of wild-type mice; format: cell-based
T2 construct: from tissue; host or cells: acute hippocampal slices (CA1 pyramidal cells) of P8-P12 wild-type mice
T2 sequence (A2AIR5 27-1135, other chains not shown): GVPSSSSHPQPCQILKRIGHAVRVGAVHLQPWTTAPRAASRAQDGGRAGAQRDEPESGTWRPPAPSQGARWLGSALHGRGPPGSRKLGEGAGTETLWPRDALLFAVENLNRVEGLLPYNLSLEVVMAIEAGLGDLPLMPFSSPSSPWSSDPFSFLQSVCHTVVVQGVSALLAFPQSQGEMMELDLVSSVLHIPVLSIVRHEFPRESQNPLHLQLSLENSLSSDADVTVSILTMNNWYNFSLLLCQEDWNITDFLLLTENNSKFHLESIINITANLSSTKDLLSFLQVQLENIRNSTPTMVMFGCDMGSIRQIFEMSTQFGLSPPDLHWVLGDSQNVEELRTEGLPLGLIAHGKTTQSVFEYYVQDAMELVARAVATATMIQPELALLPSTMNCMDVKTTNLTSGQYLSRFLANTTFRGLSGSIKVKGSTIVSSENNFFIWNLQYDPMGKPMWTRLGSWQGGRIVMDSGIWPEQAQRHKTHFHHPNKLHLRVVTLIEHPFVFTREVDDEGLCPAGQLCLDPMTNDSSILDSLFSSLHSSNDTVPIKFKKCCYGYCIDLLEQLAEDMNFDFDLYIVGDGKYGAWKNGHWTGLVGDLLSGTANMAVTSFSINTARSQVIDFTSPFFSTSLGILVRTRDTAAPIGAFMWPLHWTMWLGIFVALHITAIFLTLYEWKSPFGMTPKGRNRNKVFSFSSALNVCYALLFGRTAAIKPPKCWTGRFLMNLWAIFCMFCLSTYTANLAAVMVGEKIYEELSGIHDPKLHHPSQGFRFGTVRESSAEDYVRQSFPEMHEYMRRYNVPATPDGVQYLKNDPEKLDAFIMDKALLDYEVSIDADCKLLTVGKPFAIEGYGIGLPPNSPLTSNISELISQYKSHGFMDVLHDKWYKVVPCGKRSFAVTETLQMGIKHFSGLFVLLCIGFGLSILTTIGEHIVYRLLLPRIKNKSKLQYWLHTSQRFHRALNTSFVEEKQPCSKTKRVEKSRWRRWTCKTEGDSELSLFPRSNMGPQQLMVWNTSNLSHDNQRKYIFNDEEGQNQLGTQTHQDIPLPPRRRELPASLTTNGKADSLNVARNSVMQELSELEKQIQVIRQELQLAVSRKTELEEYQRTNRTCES
Description: (§2) Ex-vivo electrophysiological experiments were performed on coronal slices from the brains of juvenile wild-type (WT) and GluN3A-KO mice originating from the same litters (8–12 days old). Slices were prepared as described previously. Briefly, mice were anesthetized with isofluorane before decapitation. After isolation, the portion of the brain containing the hippocampus was placed in bicarbonate-buffered saline (BBS) at 2–5 °C for a few minutes. Slices (300 μm) were then cut using a 7000 smz-2 vibratome (Campden). The slicing procedure was performed in an ice-cold solution containing (in mM): 130 K^+- gluconate, 15 KCl, 0.05 EGTA, 20 Hepes, 25 glucose, 1 CaCl2, and 6 MgCl2 supplemented with DL-APV (50 µM).
(§3) CA1 neurons were recorded from both the ventral and the dorsal hippocampus. Cells were visualized with a combination of Dodt contrast, and an on-line video contrast enhancement. CA1 cells could be easily identified in the red light with which slices were visualized using a CoolSnap HQ2 CCD camera (Photometrics) run by MetaMorph (Universal Imaging). Whole-cell recordings were performed with an EPC-10 double amplifier (Heka Elektronik) run by PatchMaster (Heka). […] Series resistance was partially compensated (max 65%), whereas liquid junction potentials were not corrected. Recordings were performed at a holding potential of −60 mV.

[5] = target: T3, GluN1-F484A/GluN3A receptors (Rattus norvegicus, UniProt P35439+Q9R1M7, F484A); assay: Whole-cell patch-clamp in HEK293 cells, GluN1-F484A mutant; format: cell-based; conditions: CGP-78608 500 nM
T3 construct: while we record from intact (i.e. full length) membrane-imbedded receptors; expressed in transfected cells; host or cells: HEK293 cells
T3 sequence (Q9R1M7 24-1135, other chains not shown): as the sequence (Q9R1M7 24-1135, other chains not shown) above
Description: as §1

[6] = tested on: CA1 pyramidal cells of GluN3A-KO mice; assay: Glycine puffs onto voltage-clamped CA1 pyramidal cells, hippocampal slices of GluN3A-KO mice; format: cell-based, mouse; conditions: glycine 10 mM puff
Description: as §2, §3

GluN3A ABD = conditions: read-out: Glycine affinity; isolated GluN3A ABD; cited from earlier work

Chain of GluN1-C744S-C798S/GluN3A-C859S-C913S receptors (Q9R1M7 24-1135 C859S/C913S, other chains not shown): as the sequence (Q9R1M7 24-1135, other chains not shown) above, with C836S, C890S counted along it

Which “Effect on tail currents following glycine removal” value ([1]; glycine 100 µM) does the source give for `N#Cc1cc2[nH]c(=O)c(=O)[nH]c2cc1[N+](=O)[O-]` [CNQX, 6-Cyano-7-nitroquinoxaline-2,3-dione] here?
The value was “inhibited the large tail currents”.

And the “Displacement of holding current” value ([1]; no added glycine)?
The value was 22.9 ± 8.3 pA.

And the “Outward displacement of holding current” value (GluN1/GluN3A receptors [2]; CNQX 50 µM, no added glycine)?
The value was 0.6 ± 0.06 pA.

What does the source list for `O=C(O)CCP(CCC(=O)O)CCC(=O)O` [TCEP, Tris(2-carboxyethyl)phosphine]?
Effect of reducing treatment on glycine-evoked currents (GluN1/GluN3A receptors [3]): currents radically changed; Effect of reducing treatment on glycine-evoked responses (GluN1/GluN3A receptors [2]; TCEP 5 mM): drastic effects

With `O[C@H](CS)[C@@H](O)CS` [DTE, dithioerythritol] as the compound, how does the “Tolerability by HEK cells” value (HEK cells) read?
Its value is “could induce cell toxicity”.

Which results are given for `O=C(O)c1cc(O)c2ccc(Cl)cc2n1` [7-CKA, 7-Chlorokynureic acid]?
Peak and steady-state current potentiation compared with CGP-78608 (GluN1/GluN3A receptors [2]; glycine 1 mM): orders of magnitude lower; pKi (GluN1 ABD): 5.59

With `O=C(O)CCc1c(C(=O)O)[nH]c2cc(Cl)cc(Cl)c12` [MDL-29951, 2-carboxy-4,6-dichloro-1H-indole-3-propanoic acid] as the compound, how does the pKi (GluN1 (native receptors)) read?
Its pKi is 6.85.

And the “Potentiating factors at higher concentration” value (GluN1/GluN3A receptors [2]; MDL-29951 2 µM, glycine 1 mM)?
Its value is “smaller than those observed at 200 nM”.

And the “Peak and steady-state current potentiation compared with CGP-78608” value (GluN1/GluN3A receptors [2]; glycine 1 mM)?
Its value is “orders of magnitude lower”.

Which Glycine-induced current amplitude ([4]; bath DCKA 500 µM in presence of CGP-78608, WT) does the source give for `O=C(O)c1cc(=O)c2c(Cl)cc(Cl)cc2[nH]1` [DCKA, 5-7-Dichlorokynurenic acid] here?
Its Glycine-induced current amplitude is 10.2 ± 2.7 pA.

Which “Agonist efficacy relative to glycine” value (GluN1/GluN3A receptors [2]; D-serine up to 500 µM vs glycine 100 µM, CGP-78608 500 nM) does the source give for `N[C@H](CO)C(=O)O` [D-serine] here?
Its value is “lower efficacy than glycine”.

For `C[C@@H](NCc1cc(Br)cc2[nH]c(=O)c(=O)[nH]c12)P(=O)(O)O.Cl` [CGP-78608, [(1 S)-1-[[(7-Bromo-1,2,3,4-tetrahydro-2,3-dioxo-5-quinoxalinyl)methyl]amino]ethyl]phosphonic acid hydrochloride], which “Potentiating effect on GluN1-F484A mutant” value [5] is on record?
Its value is “insensitive; also recorded: almost completely abolished”.

And the “Glycine-induced inward current amplitude” value ([6]; bath CGP-78608 1 µM)?
Its value is 5.0 ± 0.6 pA.

What about the pKi (GluN1 ABD) of the same compound?
Its pKi is 8.19.

With `O=C(Nc1ccccc1)N[C@H]1C[C@H](C(=O)O)Nc2cc(Cl)cc(Cl)c21` (relative stereo) [L-689560, trans-2-Carboxy-5,7-dichloro-4-phenylaminocarbonylamino-1,2,3,4-tetrahydroquinoline] as the compound, how does the “Peak and steady-state current potentiation compared with CGP-78608” value (GluN1/GluN3A receptors [2]; glycine 1 mM) read?
The value was “orders of magnitude lower”.

And the “Selectivity for GluN1 vs GluN3 ABD” value (GluN1 ABD; binding studies on isolated agonist-binding domains)?
Its value is “even better than CGP-78608”.

And the pKi (GluN1 ABD)?
Its pKi is 7.53.

With `NCC(=O)O` [glycine, Glycine] as the compound, how does the “Glycine-induced inward current amplitude” value ([4]; glycine 10 mM puff, control conditions, WT P8-P12) read?
Its value is 9.3 ± 1.4 pA.

What about the pKd (GluN3A ABD) of the same compound?
The pKd was 7.39.

What about the “Glycine-induced inward current amplitude” value ([6]; control conditions) of the same compound?
Its value is 6.0 ± 0.8 pA.

Which “Effect of reducing treatment on glycine-evoked responses” value (GluN1/GluN3A receptors [2]; GSH 50 mM) does the source give for `N[C@@H](CCC(=O)N[C@@H](CS)C(=O)NCC(=O)O)C(=O)O` [GSH, reduced glutathione] here?
Its value is “completely modified the current phenotype”.
